Like-named read-outs stand apart in the source and are kept apart here.
Legend:
Rhesus PDE2A3 = Rhesus PDE2A3 (Macaca mulatta, UniProt B3VTJ2); experiment: PDE2 fluorescence polarization (IMAP FP) inhibition assay, rhesus enzyme; assay type: biochemical, rhesus macaque
Summary of the method: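 Rhesus PDE2A3 came from lysate of transiently transfected AD293 cells, diluted to give 20% substrate conversion. Substrate was 50 nM FAM-cAMP with 1 uM cGMP activator in Tris pH 7.2/MgCl2 buffer, run 60 min at room temperature over 10-point 3-fold dilutions in 1% DMSO. Read-out was IMAP fluorescence polarization (mP) after ≥1 h binding.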

human PDE2A1 = human PDE2A1 (Homo sapiens (Human), UniProt O00408); experiment: IMAP FP PDE selectivity panel, human PDE2A1; assay type: biochemical
Summary of the method: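 GST-tagged human PDE2A1 expressed in insect cells, run at room temperature for 60 min with 50 nM FAM-cAMP containing 1000 nM cGMP, pH 7.2 Tris/MgCl2 buffer. IMAP fluorescence polarization read after binding step.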

[1] = Rhesus PDE2, Lab A, read-out: Rhesus PDE2 Ki (nM) - Lab A
[2] = Human PDE2, Lab A, read-out: Human PDE2 Ki (nM) - Lab A
[3] = Rhesus PDE2, Lab B, read-out: Rhesus PDE2 Ki (nM) - Lab B
[4] = Human PDE2, Lab B, read-out: Human PDE2 Ki (nM) - Lab B

Chain of human PDE2A1 (O00408 other isoform, or with tags, fused parts or gaps): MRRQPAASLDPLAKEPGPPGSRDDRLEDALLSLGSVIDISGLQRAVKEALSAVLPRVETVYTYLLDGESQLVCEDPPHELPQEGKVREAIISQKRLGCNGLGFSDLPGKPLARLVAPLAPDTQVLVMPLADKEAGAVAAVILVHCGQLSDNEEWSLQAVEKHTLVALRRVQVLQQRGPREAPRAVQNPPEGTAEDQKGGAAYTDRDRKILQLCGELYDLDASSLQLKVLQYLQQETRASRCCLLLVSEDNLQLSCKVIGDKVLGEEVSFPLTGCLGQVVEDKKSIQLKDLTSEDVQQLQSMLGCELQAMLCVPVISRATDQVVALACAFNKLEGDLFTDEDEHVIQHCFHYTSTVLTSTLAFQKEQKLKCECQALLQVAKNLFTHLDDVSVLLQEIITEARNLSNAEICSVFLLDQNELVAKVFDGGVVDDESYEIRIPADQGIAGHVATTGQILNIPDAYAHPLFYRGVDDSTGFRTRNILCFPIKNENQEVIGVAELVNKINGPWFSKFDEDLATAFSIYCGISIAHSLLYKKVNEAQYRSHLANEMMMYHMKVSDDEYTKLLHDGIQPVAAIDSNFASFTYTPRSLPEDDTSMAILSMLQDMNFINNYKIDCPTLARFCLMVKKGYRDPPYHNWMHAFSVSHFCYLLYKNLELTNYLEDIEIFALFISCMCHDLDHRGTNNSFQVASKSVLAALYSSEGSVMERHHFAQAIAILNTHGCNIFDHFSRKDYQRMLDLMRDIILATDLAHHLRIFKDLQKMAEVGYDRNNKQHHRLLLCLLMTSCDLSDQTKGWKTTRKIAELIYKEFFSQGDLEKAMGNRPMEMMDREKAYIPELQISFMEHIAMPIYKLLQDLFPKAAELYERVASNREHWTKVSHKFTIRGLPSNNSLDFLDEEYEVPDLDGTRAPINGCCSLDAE
Chain of Rhesus PDE2A3 (B3VTJ2 1-941): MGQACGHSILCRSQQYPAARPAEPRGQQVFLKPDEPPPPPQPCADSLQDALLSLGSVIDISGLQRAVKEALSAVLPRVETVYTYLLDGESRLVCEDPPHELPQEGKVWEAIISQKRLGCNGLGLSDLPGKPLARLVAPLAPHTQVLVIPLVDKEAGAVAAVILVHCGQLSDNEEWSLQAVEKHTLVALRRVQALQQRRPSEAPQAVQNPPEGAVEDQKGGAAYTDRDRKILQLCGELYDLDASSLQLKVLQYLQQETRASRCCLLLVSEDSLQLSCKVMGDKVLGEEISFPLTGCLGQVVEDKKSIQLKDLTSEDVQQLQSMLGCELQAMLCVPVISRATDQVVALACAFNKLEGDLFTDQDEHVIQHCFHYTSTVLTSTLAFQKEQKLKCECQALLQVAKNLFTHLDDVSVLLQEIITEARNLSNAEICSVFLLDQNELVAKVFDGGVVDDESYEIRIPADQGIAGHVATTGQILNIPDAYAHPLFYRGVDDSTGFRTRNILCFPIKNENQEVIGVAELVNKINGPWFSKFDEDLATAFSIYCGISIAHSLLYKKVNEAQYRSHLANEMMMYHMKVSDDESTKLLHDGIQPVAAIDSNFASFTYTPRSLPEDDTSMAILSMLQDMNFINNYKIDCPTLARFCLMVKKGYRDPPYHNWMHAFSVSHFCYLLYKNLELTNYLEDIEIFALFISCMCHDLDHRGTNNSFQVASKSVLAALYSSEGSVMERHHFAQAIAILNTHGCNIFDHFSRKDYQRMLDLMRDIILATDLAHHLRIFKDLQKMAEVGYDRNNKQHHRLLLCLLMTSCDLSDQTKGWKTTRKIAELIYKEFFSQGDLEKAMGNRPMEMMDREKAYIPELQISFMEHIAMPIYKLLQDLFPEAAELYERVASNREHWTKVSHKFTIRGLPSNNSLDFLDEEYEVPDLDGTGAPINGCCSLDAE

SMILES | Ki (Rhesus PDE2A3; [1]) [nM] | Ki (human PDE2A1; [2]) [nM] | Ki (Rhesus PDE2A3; [3]) [nM] | Ki (human PDE2A1; [4]) [nM]
O=C(N[C@@H](c1ccc(OC(F)(F)F)c(F)c1)C1CC1)c1cc(=O)[nH]c(-c2ncccn2)n1 [Example 93, N-{(R)-cyclopropyl[3-fluoro-4-(trifluoromethoxy)phenyl]methyl}-6-oxo-1,6-dihydro-2,2′-bipyrimidine-4-carboxamide] | 35 | 9.6 |  | 
O=C(N[C@@H](c1ccc(SC(F)(F)F)cc1)C1CC1)c1cc(=O)[nH]c(-c2ncccn2)n1 [Example 95, N-[(R)-cyclopropyl{4-[(trifluoromethyl)sulfanyl]phenyl}methyl]-6-oxo-1,6-dihydro-2,2′-bipyrimidine-4-carboxamide] | 7.4 | 3.1 |  | 
C[C@@H](NC(=O)c1cc(=O)[nH]c(-c2ncccn2)n1)c1ccc(C(F)(F)F)c(F)c1 [Example 98, N-{(1R)-1-[3-fluoro-4-(trifluoromethyl)phenyl]ethyl}-6-oxo-1,6-dihydro-2,2′-bipyrimidine-4-carboxamide] | 8.8 |  | 12 | 15
C[C@@H](NC(=O)c1cc(=O)[nH]c(-c2ncccn2)n1)c1ccc(C(F)(F)F)cc1F [Example 99, N-[(1R)-1-[2-fluoro-4-(trifluoromethyl)phenyl]ethyl}-6-oxo-1,6-dihydro-2,2′-bipyrimidine-4-carboxamide] | 58 | 24 |  | 
C[C@@H](NC(=O)c1cc(=O)[nH]c(-c2ncccn2)n1)c1ccc(OC(F)(F)F)cc1F [Example 101, N-{(1R)-1-[2-fluoro-4-(trifluoromethoxy)phenyl]ethyl}-6-oxo-1,6-dihydro-2,2′-bipyrimidine-4-carboxamide] | 28 | ~8.9 | 28 | 33
C[C@@H](NC(=O)c1cc(=O)[nH]c(-c2ncccn2)n1)c1ccc(OC(F)(F)F)c(F)c1 [Example 103, N-{(1R)-1-[3-fluoro-4-(trifluoromethoxy)phenyl]ethyl}-6-oxo-1,6-dihydro-2,2′-bipyrimidine-4-carboxamide] | 5.5 | 3.4 |  | 
CC[C@@H](NC(=O)c1cc(=O)[nH]c(-c2ncccn2)n1)c1ccc(OC(F)(F)F)cc1 [Example 106, 6-oxo-N-{(1R)-1-[4-(trifluoromethoxy)phenyl]propyl}-1,6-dihydro-2,2′-bipyrimidine-4-carboxamide] | 12 | 5.6 |  | 
C[C@@H](NC(=O)c1cc(=O)[nH]c(-c2ncccn2)n1)c1cc(F)c(C(F)(F)F)c(F)c1 [Example 108, N-{(1R)-1-[3,5-difluoro-4-(trifluoromethyl)phenyl]ethyl}-6-oxo-1,6-dihydro-2,2′-bipyrimidine-4-carboxamide] | 25 | ~9.2 | 33 | 39
C[C@@H](NC(=O)c1cc(=O)[nH]c(-c2ncccn2)n1)c1ccc(C(F)(F)F)c(Cl)c1 [Example 110, N-{(1R)-1-[3-chloro-4-(trifluoromethyl)phenyl]ethyl}-6-pxo-1,6-dihydro-2,2′-bipyrimidine-4-carboxamide] | 12 | 7.2 |  | 
C[C@@H](NC(=O)c1cc(=O)[nH]c(-c2ncccn2)n1)c1ccc(S(F)(F)(F)(F)F)cc1 [Example 111, 6-oxo-N-{(1R)-1-[4-(pentafluoro-λ^6-sulfanyl)phenyl]ethyl}-1,6-dihydro-2,2′-bipyrimidine-4-carboxamide] | 3.6 |  | 3.9 | 4.7

Results, then the molecule that gave them:

Ki (Rhesus PDE2A3; [1]) [nM] | Ki (human PDE2A1; [2]) [nM] | Ki (Rhesus PDE2A3; [3]) [nM] | Ki (human PDE2A1; [4]) [nM] | SMILES
84 | 16 |  |  | COCc1nc(C(=O)N[C@H](C)c2ccc(OC(F)(F)F)cc2)cc(=O)[nH]1 [Example 113, 2-(methoxymethyl)-6-oxo-N-{(1R)-1-[4-(trifluoromethoxy)phenyl]ethyl}-1,6-dihydropyrimidine-4-carboxamide]
48 | ~11 |  |  | CC[C@@H](NC(=O)c1cc(=O)[nH]c(COC)n1)c1ccc(OC(F)(F)F)c(F)c1 [Example 114, N-{(1R)-1-[3-fluoro-4-(trifluoromethoxy)phenyl]propyl}-2-(methoxymethyl)-6-oxo-1,6-dihydropyrimidine-4-carboxamide]
73 | 15 |  |  | COCc1nc(C(=O)N[C@@H](c2ccc(C(F)(F)F)c(F)c2)C2CC2)cc(=O)[nH]1 [Example 115, N-{(R)-cyclopropyl[3-fluoro-4-(trifluoromethyl)phenyl]methyl}-2-(methoxymethyl)-6-oxo-1,6-dihydropyrimidine-4-carboxamide]
70 | 16 |  |  | COCc1nc(C(=O)N[C@@H](c2ccc(OC(F)(F)F)cc2)C2CC2)cc(=O)[nH]1 [Example 116, N-{(R)-cyclopropyl[4-(trifluoromethoxy)phenyl]methyl}-2-(methoxymethyl)-6-oxo-1,6-dihydropyrimidine-4-carboxamide]
80 | ~13 |  | 42 | COCc1nc(C(=O)N[C@@H](c2ccc(OC(F)(F)F)c(F)c2)C2CC2)cc(=O)[nH]1 [Example 117, N-{(R)-cyclopropyl[3-fluoro-4-(trifluoromethoxy)phenyl]methyl}-2-(methoxymethyl)-6-oxo-1,6-dihydropyrimidine-4-carboxamide]
76 | 18 |  |  | COCc1nc(C(=O)N[C@@H](c2ccc(C(F)(F)F)cc2)C2CC2)cc(=O)[nH]1 [Example 118, N-{(R)-cyclopropyl[4-(trifluoromethyl)phenyl]methyl}-2-(methoxymethyl)-6-oxo-1,6-dihydropyrimidine-4-carboxamide]
74 | 17 | 53 |  | CC[C@@H](NC(=O)c1cc(=O)[nH]c(COC)n1)c1ccc(OC(F)(F)F)cc1 [Example 119, 2-(methoxymethyl)-6-oxo-N-{(1R)-1-[4-(trifluoromethoxy)phenyl]propyl}-1,6-dihydropyrimidine-4-carboxamide]
8.7 | 4.2 |  |  | COCc1nc(C(=O)N[C@@H](c2ccc(SC(F)(F)F)cc2)C(C)C)cc(=O)[nH]1 [Example 120, 2-(methoxymethyl)-N-[(1R)-2-methyl-1-{4-[(trifluoromethyl)sulfanyl]phenyl}propyl]-6-oxo-1,6-dihydropyrimidine-4-carboxamide]
25 | ~6.2 | 29 |  | CC[C@@H](NC(=O)c1cc(=O)[nH]c(COC)n1)c1ccc(SC(F)(F)F)cc1 [Example 121, 2-(methoxymethyl)-6-oxo-N-[(1R)-1-{4-[(trifluoromethyl)sulfanyl]phenyl}propyl]-1,6-dihydropyrimidine-4-carboxamide]
152 | 38 |  |  | COCc1nc(C(=O)N[C@H](C)c2ccc(C(C)C)cc2)cc(=O)[nH]1 [Example 122, 2-(methoxymethyl)-N-{(1R)-1-[4-(1-methylethyl)phenyl]ethyl}-6-oxo-1,6-dihydropyrimidine-4-carboxamide]
39 | ~8.2 | 31 |  | COCc1nc(C(=O)N[C@H](C)c2ccc(SC(F)(F)F)cc2)cc(=O)[nH]1 [Example 123, 2-(methoxymethyl)-6-oxo-N-[(1R)-1-{4-[(trifluoromethyl)sulfanyl]phenyl}ethyl]-1,6-dihydropyrimidine-4-carboxamide]
176 | 45 |  |  | COCc1nc(C(=O)N[C@H](C)c2ccc(C(F)(F)F)c(F)c2)cc(=O)[nH]1 [Example 125, N-{(1R)-1-[3-fluoro-4-(trifluoromethyl)phenyl]ethyl}-2-(methoxymethyl)-6-oxo-1,6-dihydropyrimidine-4-carboxamide]
